Data: publication PMC12410356 (International Journal for Parasitology: Drugs and Drug …, 2025)
Values joined by “and” are separate entries in the source; they are usually repeats but may differ in a detail not shown here. Equal values may be shown once. Read-outs that look alike come from different tables or passages of the source.

Tests used:
Assay type in all cases: cell-based, Echinococcus multilocularis
[1] = system: E. multilocularis metacestode vesicles; assay: Phosphoglucose isomerase (PGI) release assay (damage-marker release) on metacestode vesicles; settings: 10 μM; for PGI d5 (relative PGI release): 5 days; for PGI d12 (relative PGI release): 12 days
[2] = system: E. multilocularis metacestode vesicles; assay: Metacestode vesicle viability assay (ATP, CellTiter-Glo); settings: for viability at 10 µM: Echinococcus multilocularis, 288 h
Procedure: Viability was assessed after 12 days using the same metacestode vesicles as for the PGI release assay. Triton X-100 was added to each well to a final concentration of 0.1 %. Subsequently the metacestode vesicles were broken mechanically and 50 μL of the supernatant was mixed with 50 μL of CellTiter-Glo® buffer (Promega, Dübendorf, Switzerland). Measurements were performed on a HIDEX Sense microplate reader.

[3] = system: E. multilocularis GL cells; assay: Germinal layer cell viability assay (CellTiter-Glo); settings: 80 to 0.31 μM, 5 days
Procedure: The isolation of GL cells was conducted according to ([Kaethner et al., 2023]). Briefly, conditioned DMEM (cDMEM) was prepared prior to isolation. For the preparation of cDMEM, 1 × 10^6 RH cells and 10 × 10^6 RH cells incubated in DMEM supplemented with 10 % FBS, penicillin (100 U/mL), streptomycin (100 μg/mL) and tetracycline (5 μg/mL) for six or four days, respectively, at 37 °C under a humid, 5 % CO2 atmosphere. The supernatant of each was mixed 1:1 and sterile filtrated, resulting in cDMEM. Metacestode vesicles of at least 6 months of age were washed with PBS, incubated in distilled H2O for 2.5 min and subsequently mechanically disrupted. The resulting pellet was resuspended in 7 vol of pre-warmed 0.05 % Trypsin/0.02 % EDTA and incubated at 37 °C for 30 min. GL cells were extracted from the laminated layer by vigorous shaking followed by filtration through a 30 μm mesh (Sefar AG, Heiden, Switzerland) and separated from calcareous corpuscles by short centrifugation at 50×g for 30 s at RT. The isolated cells were centrifuged for 10 min at 600×g and RT and the pellet was resuspended in cDMEM. The cell suspension was diluted 1:100 in PBS to measure the OD600. An OD600 value of 0.1 of this dilution was defined as one arbitrary unit (AU) per μL of the undiluted cell suspension corresponding to 0.97 ± 0.11 μg of total protein for the GL cells as measured via Pierce™ bicinchoninic acid (BCA) Protein Assay Kit according to the manufacturer's protocol (Fisher Scientific AG, Reinach, Switzerland). 1′000 AU per 5 mL of cDMEM were cultured at 37 °C overnight under a humid nitrogen atmosphere. The next day, 2′000 AU of GL cells were combined and further cultured for 3 h at 37 °C under a humid nitrogen atmosphere before they were used for further experiments.
To assess effects of compounds on the cell viability of isolated E. multilocularis GL cells, the protocol was applied as previously described ([Kaethner et al., 2023]). In short, 15 AU of GL cells were distributed into each well of a black 384-well plate. Compounds dissolved in DMSO (alexidine, carbendazim, ESI-09, MMV1581545 and oxfendazole) were added to final concentrations ranging from 80 to 0.31 μM (1:2 serial dilution) and the cells were cultured for 5 days at 37 °C under a humid, microaerobic atmosphere (85 % N2, 10 % CO2, 5 % O2). DMSO with the respective concentration was used as a solvent control. Viability was measured using the CellTiter-Glo® kit. Luminescence was measured using a HIDEX Sense microplate reader. Measurements were done in quadruplicates and represented as relative viability of the DMSO controls. IC50 values were calculated in R applying the five parameter logistic model for three independent experiments ([Ritler et al., 2020]).

[4] = confirmation screen, triplicates, mean
[5] = overview screen, singlets, relative to 0.1 % Triton X-100, DMSO subtracted
[6] = overview screen, 10 μM, singlets, 12 days, relative to DMSO control
[7] = confirmation screen, 10 μM, triplicates, mean, 12 days

COC(=O)Nc1nc2ccc([S+]([O-])c3ccccc3)cc2[nH]1 (stereo not shown) [oxfendazole, reference compound]
PGI d5 (relative PGI release) [1, 4]: 5.40%
PGI d12 (relative PGI release) [1, 4]: 29.07%
PGI d5 (relative PGI release) [1, 5]: -1.521%
PGI d12 (relative PGI release) [1, 5]: 31.4286%
viability at 10 µM ([2]; confirmation screen, 10 μM, triplicates, mean, 12 days, read-out: Viability d12 (relative viability)): 30.6%
viability at 10 µM ([2]; overview screen, 10 μM, singlets, 12 days, relative to DMSO control, read-out: Viability d12 (relative viability)): 15.1%
effect on GL cell viability (in words) [3]: not able to decrease GL cell viability
effect on GL cell viability (in words) ([3]; listed as Oxfendazole): did not reduce GL cell viability

COC(=O)Nc1nc2ccccc2[nH]1 [carbendazim]
PGI d5 (relative PGI release) [1, 4]: 5.10%
PGI d12 (relative PGI release) [1, 4]: 24.66%
PGI d5 (relative PGI release) [1, 5]: 6.336%
PGI d12 (relative PGI release) [1, 5]: 74.6935%
viability at 10 µM ([2]; read-out: Viability d12 (relative viability), confirmation screen, 10 μM, triplicates, mean, 12 days): 36.4%
viability at 10 µM ([2]; read-out: Viability d12 (relative viability), overview screen, 10 μM, singlets, 12 days, relative to DMSO control): 4.59%
effect on GL cell viability (in words) [3]: did not reduce GL cell viability
effect on GL cell viability (in words) ([3]; listed as Carbendazim): not able to decrease GL cell viability

O=C(NC1CCCc2c1[nH]c1ccc(Cl)cc21)c1ccccn1 (stereo not shown) [MMV690621]
PGI d5 (relative PGI release) [1, 5]: 0.1463%
PGI d12 (relative PGI release) [1, 5]: -17.1395%
Viability d12 (relative viability) ([2]; 10 µM): 144.507%

Nc1nnc(-c2ccc(Cl)cc2)s1 [MMV046261]
PGI d5 (relative PGI release) [1, 5]: 0.5147%
PGI d12 (relative PGI release) [1, 5]: 3.499%
Viability d12 (relative viability) [2, 6]: 11.5226%

COC(=O)Nc1nc2cc(Sc3ccccc3)ccc2[nH]1 [MMV003143]
PGI d5 (relative PGI release) [1, 5]: 2.636%
PGI d12 (relative PGI release) [1, 5]: 9.38%
Viability d12 (relative viability) [2, 6]: 13.6935%

O=C(Nc1[nH]c(=O)ncc1F)c1ccccc1 [MMV1782225]
PGI d5 (relative PGI release) [1, 5]: -0.8152%
PGI d12 (relative PGI release) [1, 5]: -21.87%
Viability d12 (relative viability) [2, 6]: 224.691%

C=CCc1cc(Cc2cnc(N)nc2N)cc(OC)c1O [MMV1580849]
PGI d5 (relative PGI release) [1, 5]: 24.5% and 24.5063%
PGI d12 (relative PGI release) [1, 5]: -6.332%
Viability d12 (relative viability) [2, 6]: 47.2094%

CC(=O)N1CCN(c2ccc(OC[C@@H]3CO[C@@](Cn4ccnc4)(c4ccc(Cl)cc4Cl)O3)cc2)CC1 [MMV637533]
PGI d5 (relative PGI release) [1, 5]: 1.26%
PGI d12 (relative PGI release) [1, 5]: -24.3929%
Viability d12 (relative viability) [2, 6]: 224.858%

CCCCc1ccc(-c2cc(C(=O)O)cc(-c3ccc(Cl)cc3)n2)cc1 [MMV1580852]
PGI d5 (relative PGI release) [1, 5]: -0.3014%
PGI d12 (relative PGI release) [1, 5]: -1.795%
Viability d12 (relative viability) [2, 6]: 95.9921%

CC[N+]1(C/C2=C/CCCCCC2)CCC(NC(=O)C2c3cc(Cl)ccc3Oc3ccc(Cl)cc32)CC1.[I-] (stereo not shown) [MMV1580489]
PGI d5 (relative PGI release) [1, 5]: 1.482%
PGI d12 (relative PGI release) [1, 5]: -2.113%
Viability d12 (relative viability) [2, 6]: 73.6372%

CC1CN(c2ncnc3c2c(-c2ccccc2)cn3-c2ccc(F)cc2)CC(C)O1 (stereo not shown) [MMV093250]
PGI d5 (relative PGI release) [1, 4]: 0.08%
PGI d12 (relative PGI release) [1, 4]: -0.45%
PGI d5 (relative PGI release) [1, 5]: 0.6968%
PGI d12 (relative PGI release) [1, 5]: 49.8105%
Viability d12 (relative viability) [2, 7]: 29.29%
Viability d12 (relative viability) [2, 6]: 6.513%

Cc1ccc(Oc2ccccc2-c2csc(N=C3NCCCN3)n2)c(C)c1 [MMV1634493]
PGI d5 (relative PGI release) [1, 5]: 4.111%
PGI d12 (relative PGI release) [1, 5]: 7.6311%
Viability d12 (relative viability) [2, 6]: 36.7387%

CN(C/C=C/C#CC(C)(C)C)Cc1cccc2ccccc12 [MMV1634359]
PGI d5 (relative PGI release) [1, 5]: -1.48%
PGI d12 (relative PGI release) [1, 5]: -21.017%
Viability d12 (relative viability) [2, 6]: 186.198%

Cc1c(CN(C)C(=O)/C=C/c2cnc3c(c2)C(C)(C)C(=O)N3)oc2ccccc12 [MMV1579788]
PGI d5 (relative PGI release) [1, 4]: -0.0109%
PGI d12 (relative PGI release) [1, 4]: -0.0852%
PGI d5 (relative PGI release) [1, 5]: 17.9293%
PGI d12 (relative PGI release) [1, 5]: 63.9713%
Viability d12 (relative viability) [2, 7]: 76.12%
Viability d12 (relative viability) [2, 6]: 5.845%

Nc1nc2c(ncn2/C=C2/CC2(CO)CO)c(=O)[nH]1 [MMV1782210]
PGI d5 (relative PGI release) [1, 5]: 0.1371%
PGI d12 (relative PGI release) [1, 5]: -1.147%
Viability d12 (relative viability) [2, 6]: 144.056%

C[C@H](c1cccc2ccccc12)N(C)Cc1ccccc1 [MMV1782221]
PGI d5 (relative PGI release) [1, 5]: 2%
PGI d12 (relative PGI release) [1, 5]: -21.1471%
Viability d12 (relative viability) [2, 6]: 45.2554%

NNC(=O)c1ccncc1 [MMV002169]
PGI d5 (relative PGI release) [1, 5]: 1.814%
PGI d12 (relative PGI release) [1, 5]: -1%
Viability d12 (relative viability) [2, 6]: 113.159%

O=C(Nc1nnc(-c2ccccc2)o1)c1ccc(F)cc1 [MMV1578578]
PGI d5 (relative PGI release) [1, 5]: -0.5299%
PGI d12 (relative PGI release) [1, 5]: 45.2443%
Viability d12 (relative viability) [2, 6]: 33.8998%

COc1cc(NCc2ccc3nc(N)nc(N)c3c2C)cc(OC)c1OC [MMV1580173]
PGI d5 (relative PGI release) [1, 5]: -1.642%
PGI d12 (relative PGI release) [1, 5]: -23.9013%
Viability d12 (relative viability) ([2]; 10 µM): 66.8811%

O=[N+]([O-])/C(Br)=C/c1ccc(Br)o1 [MMV1645051]
PGI d5 (relative PGI release) [1, 5]: 1.139%
PGI d12 (relative PGI release) [1, 5]: -20.9736%
Viability d12 (relative viability) [2, 6]: 16.4489%

O=C1C=C(c2ccccc2)S(=O)(=O)c2ccccc21 [MMV1006203]
PGI d5 (relative PGI release) [1, 5]: 0.2239%
PGI d12 (relative PGI release) [1, 5]: 0.7153%
Viability d12 (relative viability) [2, 6]: 120.957%

N#C/C(=C1/SC[C@@H](c2ccc(Cl)cc2Cl)S1)n1ccnc1 [MMV1782224]
PGI d5 (relative PGI release) [1, 5]: 12.0659%
PGI d12 (relative PGI release) [1, 5]: -22.8965%
Viability d12 (relative viability) ([2]; 10 µM): 41.9155%

Cc1ccn2c(C(=O)NCc3ccccc3)c(C)nc2c1 [MMV1579847]
PGI d5 (relative PGI release) [1, 5]: -1.164%
PGI d12 (relative PGI release) [1, 5]: -2.526%
Viability d12 (relative viability) [2, 6]: 87.8278%

CCCC(=O)OCCc1ccccc1 [MMV1578899]
PGI d5 (relative PGI release) [1, 5]: -0.4977%
PGI d12 (relative PGI release) [1, 5]: -12.5447%
Viability d12 (relative viability) [2, 6]: 64.2092%
